Measured values from PubChem BioAssay AID226 (DTP/NCI, 2004).
Values joined by “and” are separate entries in the source; they are usually repeats but may differ in a detail not shown here. Equal values may be shown once. Inconclusive results and toxic doses are left out.

Test system: B6C3F1 mice, intracerebral ependymoblastoma, median survival T/C
Experiment: NCI In Vivo Anticancer Drug Screen. Data for tumor model Ependymoblastoma (intracerebral) in B6C3F1 mice
Conditions: endpoint: median survival time, higher = longer survival
Method: The antitumor activity of compounds was measured in mice bearing transplantable tumors. Survival or tumor size were measured and the results are expressed as the measurement made in the treated group (T) divided by the measurement made in the vehicle treated control group (C). The tumor model used in this assay is Ependymoblastoma (intracerebral) in B6C3F1 mice

Compound: COCC(O)Cn1ccnc1[N+](=O)[O-] (configuration not stated)
- T/C (dose: 32.0 mg/kg/injection, schedule: Q01DX005 (ip), vehicle: Klucel (hydroxypropylcellulose) (HPC)): 97 % of control
- T/C (dose: 64.0 mg/kg/injection, schedule: Q01DX005 (ip), vehicle: Klucel (hydroxypropylcellulose) (HPC)): 96 % of control
- T/C (dose: 100.0 mg/kg/injection, schedule: Q01DX005 (ip), vehicle: saline with Tween-80): 97 % of control and 111 % of control
- T/C (dose: 100.0 mg/kg/injection, schedule: Q01DX009 (ip), vehicle: saline with Tween-80): 91 % of control and 112 % of control
- T/C (dose: 100.0 mg/kg/injection, schedule: Q12HX010 (ip), vehicle: saline with Tween-80): 109 % of control
- T/C (dose: 100.0 mg/kg/injection, schedule: Q#A X010 (ip), vehicle: saline with Tween-80): 167 % of control
- T/C (dose: 100.0 mg/kg/injection, schedule: Q#ADX018 (ip), vehicle: saline with Tween-80): 86 % of control
- T/C (dose: 128.0 mg/kg/injection, schedule: Q01DX005 (ip), vehicle: Klucel (hydroxypropylcellulose) (HPC)): 93 % of control
- T/C (dose: 200.0 mg/kg/injection, schedule: Q01DX005 (ip), vehicle: saline with Tween-80): 106 % of control and 88 % of control
- T/C (dose: 200.0 mg/kg/injection, schedule: Q01DX009 (ip), vehicle: saline with Tween-80): 94 % of control and 107 % of control
- T/C (dose: 200.0 mg/kg/injection, schedule: Q12HX010 (ip), vehicle: saline with Tween-80): 118 % of control
- T/C (dose: 200.0 mg/kg/injection, schedule: Q#A X010 (ip), vehicle: saline with Tween-80): 172 % of control
- T/C (dose: 200.0 mg/kg/injection, schedule: Q#ADX018 (ip), vehicle: saline with Tween-80): 94 % of control
- T/C (dose: 256.0 mg/kg/injection, schedule: Q01DX005 (ip), vehicle: Klucel (hydroxypropylcellulose) (HPC)): 92 % of control
- T/C (dose: 400.0 mg/kg/injection, schedule: Q01DX005 (ip), vehicle: saline with Tween-80): 92 % of control and 105 % of control
- T/C (dose: 400.0 mg/kg/injection, schedule: Q01DX009 (ip), vehicle: saline with Tween-80): 96 % of control and 98 % of control
- T/C (dose: 400.0 mg/kg/injection, schedule: Q12HX010 (ip), vehicle: saline with Tween-80): 117 % of control
- T/C (dose: 400.0 mg/kg/injection, schedule: Q#A X010 (ip), vehicle: saline with Tween-80): 167 % of control
- T/C (dose: 400.0 mg/kg/injection, schedule: Q#ADX018 (ip), vehicle: saline with Tween-80): 100 % of control
- T/C (dose: 512.0 mg/kg/injection, schedule: Q01DX005 (ip), vehicle: Klucel (hydroxypropylcellulose) (HPC)): 96 % of control
- T/C (dose: 800.0 mg/kg/injection, schedule: Q01DX005 (ip), vehicle: saline with Tween-80): 101 % of control
- T/C (dose: 800.0 mg/kg/injection, schedule: Q01DX009 (ip), vehicle: saline with Tween-80): 103 % of control and 104 % of control
- T/C (dose: 800.0 mg/kg/injection, schedule: Q12HX010 (ip), vehicle: saline with Tween-80): 99 % of control
- T/C (dose: 800.0 mg/kg/injection, schedule: Q#A X010 (ip), vehicle: saline with Tween-80): 165 % of control
- T/C (dose: 800.0 mg/kg/injection, schedule: Q#ADX018 (ip), vehicle: saline with Tween-80): 94 % of control

Compound: COC1OC(CNC(=O)N(C)N=O)C(O)C(O)C1O (configuration not stated)
- T/C (dose: 25.0 mg/kg/injection, schedule: Q01DX005 (ip), vehicle: saline): 124 % of control
- T/C (dose: 50.0 mg/kg/injection, schedule: Q01DX005 (ip), vehicle: saline): 121 % of control
- T/C (dose: 400.0 mg/kg/injection, schedule: Q01DX005 (ip), vehicle: saline): 164 % of control

Compound: CC1CCC(NC(=O)N(CCCl)N=O)CC1 (configuration not stated)
- T/C (dose: 0.5 mg/kg/injection, schedule: Q01DX009 (ip), vehicle: Klucel (hydroxypropylcellulose) (HPC)): 108 % of control
- T/C (dose: 1.0 mg/kg/injection, schedule: Q01DX005 (ip), vehicle: other): 110 % of control
- T/C (dose: 1.0 mg/kg/injection, schedule: Q01DX009 (ip), vehicle: Klucel (hydroxypropylcellulose) (HPC)): 106 % of control
- T/C (dose: 2.0 mg/kg/injection, schedule: Q01DX005 (ip), vehicle: other): 160 % of control
- T/C (dose: 2.0 mg/kg/injection, schedule: Q01DX005 (ip), vehicle: saline): 102 % of control
- T/C (dose: 2.0 mg/kg/injection, schedule: Q01DX009 (ip), vehicle: Klucel (hydroxypropylcellulose) (HPC)): 112 % of control
- T/C (dose: 4.0 mg/kg/injection, schedule: Q01DX005 (ip), vehicle: other): 119 % of control
- T/C (dose: 4.0 mg/kg/injection, schedule: Q01DX005 (ip), vehicle: saline): 108 % of control
- T/C (dose: 6.25 mg/kg/injection, schedule: Q01DX001 (ip), vehicle: saline + alcohol): 118 % of control
- T/C (dose: 8.0 mg/kg/injection, schedule: Q01DX005 (ip), vehicle: other): 160 % of control
- T/C (dose: 8.3 mg/kg/injection, schedule: Q01DX001 (ip), vehicle: DMSO): 104 % of control
- T/C (dose: 13.8 mg/kg/injection, schedule: Q01DX001 (ip), vehicle: DMSO): 108 % of control
- T/C (dose: 16.0 mg/kg/injection, schedule: Q01DX001 (ip), vehicle: other): 124 % of control
- T/C (dose: 16.0 mg/kg/injection, schedule: Q01DX005 (ip), vehicle: other): 300 % of control
- T/C (dose: 23.0 mg/kg/injection, schedule: Q01DX001 (ip), vehicle: DMSO): 122 % of control
- T/C (dose: 25.0 mg/kg/injection, schedule: Q01DX001 (ip), vehicle: saline + alcohol): 182 % of control
- T/C (dose: 38.4 mg/kg/injection, schedule: Q01DX001 (ip), vehicle: DMSO): 112 % of control
- T/C (dose: 50.0 mg/kg/injection, schedule: Q01DX001 (ip), vehicle: saline + alcohol): 235 % of control
- T/C (dose: 64.0 mg/kg/injection, schedule: Q01DX001 (ip), vehicle: DMSO): 118 % of control
- T/C (dose: 64.0 mg/kg/injection, schedule: Q01DX001 (ip), vehicle: other): 191 % of control
- T/C (dose: 128.0 mg/kg/injection, schedule: Q01DX001 (ip), vehicle: other): 204 % of control

Compound: CSCS(=O)C[C@H](CO)NC(=O)/C=C/c1c(C)[nH]c(=O)[nH]c1=O (some centres not stated)
- T/C (dose: 0.06 mg/kg/injection, schedule: Q01DX005 (ip), vehicle: Klucel (hydroxypropylcellulose) (HPC)): 105 % of control
- T/C (dose: 0.12 mg/kg/injection, schedule: Q01DX001 (ip), vehicle: Klucel (hydroxypropylcellulose) (HPC)): 102 % of control and 104 % of control and 107 % of control
- T/C (dose: 0.12 mg/kg/injection, schedule: Q01DX005 (ip), vehicle: Klucel (hydroxypropylcellulose) (HPC)): 100 % of control
- T/C (dose: 0.25 mg/kg/injection, schedule: Q01DX001 (ip), vehicle: Klucel (hydroxypropylcellulose) (HPC)): 101 % of control and 102 % of control and 112 % of control
- T/C (dose: 0.25 mg/kg/injection, schedule: Q01DX005 (ip), vehicle: Klucel (hydroxypropylcellulose) (HPC)): 105 % of control
- T/C (dose: 0.5 mg/kg/injection, schedule: Q01DX001 (ip), vehicle: Klucel (hydroxypropylcellulose) (HPC)): 97 % of control and 103 % of control and 109 % of control
- T/C (dose: 0.5 mg/kg/injection, schedule: Q01DX005 (ip), vehicle: Klucel (hydroxypropylcellulose) (HPC)): 102 % of control
- T/C (dose: 1.0 mg/kg/injection, schedule: Q01DX001 (ip), vehicle: Klucel (hydroxypropylcellulose) (HPC)): 96 % of control and 97 % of control and 102 % of control

Compound: CCCCN(C)N=Nc1ccc([N+](=O)[O-])cc1C(N)=O
- T/C (dose: 32.0 mg/kg/injection, schedule: Q01DX005 (ip), vehicle: saline with Tween-80): 114 % of control
- T/C (dose: 128.0 mg/kg/injection, schedule: Q01DX005 (ip), vehicle: saline with Tween-80): 171 % of control
- T/C (dose: 256.0 mg/kg/injection, schedule: Q01DX005 (ip), vehicle: saline with Tween-80): 158 % of control

Compound: NC(=O)N(CCCl)N=O
- T/C (dose: 1.0 mg/kg/injection, schedule: Q01DX001 (ip), vehicle: saline + alcohol): 121 % of control
- T/C (dose: 4.0 mg/kg/injection, schedule: Q01DX001 (ip), vehicle: saline + alcohol): 184 % of control

Compound: N=[N+]=CC(=O)CCC(NC(=O)C(CCC(=O)C=[N+]=N)NC(=O)CCC(N)C(=O)O)C(=O)O (configuration not stated)
- T/C (dose: 0.05 mg/kg/injection, schedule: Q01DX005 (ip), vehicle: Klucel (hydroxypropylcellulose) (HPC)): 100 % of control and 106 % of control
- T/C (dose: 0.1 mg/kg/injection, schedule: Q01DX005 (ip), vehicle: Klucel (hydroxypropylcellulose) (HPC)): 90 % of control and 107 % of control
- T/C (dose: 0.2 mg/kg/injection, schedule: Q01DX005 (ip), vehicle: Klucel (hydroxypropylcellulose) (HPC)): 99 % of control and 108 % of control
- T/C (dose: 0.4 mg/kg/injection, schedule: Q01DX005 (ip), vehicle: Klucel (hydroxypropylcellulose) (HPC)): 97 % of control and 114 % of control

Compound: CC1(C)OCC(CO)(Nc2nc(N3CC3)nc(N3CC3)n2)CO1
- T/C (dose: 1.25 mg/kg/injection, schedule: Q01DX005 (ip), vehicle: suspension in saline): 105 % of control
- T/C (dose: 2.5 mg/kg/injection, schedule: Q01DX005 (ip), vehicle: suspension in saline): 103 % of control
- T/C (dose: 5.0 mg/kg/injection, schedule: Q01DX005 (ip), vehicle: suspension in saline): 113 % of control

Compound: CC[C@H]1CN2CCc3cc(OC)c(OC)cc3[C@@H]2C[C@@H]1C[C@H]1NCCc2cc(OC)c(OC)cc21
- T/C (dose: 2.0 mg/kg/injection, schedule: Q01DX005 (ip), vehicle: Klucel (hydroxypropylcellulose) (HPC)): 100 % of control and 104 % of control
- T/C (dose: 4.0 mg/kg/injection, schedule: Q01DX005 (ip), vehicle: Klucel (hydroxypropylcellulose) (HPC)): 99 % of control and 105 % of control
- T/C (dose: 8.0 mg/kg/injection, schedule: Q01DX005 (ip), vehicle: Klucel (hydroxypropylcellulose) (HPC)): 105 % of control and 117 % of control
